“And” between values parts separate entries of the source, which are not always exact repeats. Equal entries are not always repeated.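 48-hour exposure; five concentrations; linearly interpolated endpoints. GI50 is the concentration that inhibits growth by half. TGI: concentration producing complete growth inhibition.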
Tests used:
Assay in all cases: DTP human tumour cell line panel, 48 h
HT29 colon = test system: HT29 colon
CCRF-CEM leukemia = test system: CCRF-CEM leukemia
DMS 273 small cell lung = test system: DMS 273 small cell lung
DMS 114 small cell lung = test system: DMS 114 small cell lung
UACC-62 melanoma = test system: UACC-62 melanoma
SK-MEL-28 melanoma = test system: SK-MEL-28 melanoma
SF-268 CNS = test system: SF-268 CNS
CAKI-1 renal = test system: CAKI-1 renal
DLD-1 colon = test system: DLD-1 colon
A549 NSCLC = test system: A549 NSCLC
HS 578T breast = test system: HS 578T breast

| Compound | TGI (HT29 colon) | TGI (CCRF-CEM leukemia) | TGI (DMS 273 small cell lung) [µM] | TGI (DMS 114 small cell lung) [µM] | TGI (UACC-62 melanoma) | TGI (SK-MEL-28 melanoma) | TGI (SF-268 CNS) | TGI (CAKI-1 renal) | TGI (DLD-1 colon) [µM] | TGI (A549 NSCLC) | GI50 (HT29 colon) | GI50 (CCRF-CEM leukemia) [µM] | GI50 (UACC-62 melanoma) | GI50 (SK-MEL-28 melanoma) | GI50 (SF-268 CNS) [µM] | GI50 (CAKI-1 renal) | GI50 (A549 NSCLC) | GI50 (HS 578T breast) | TGI (HS 578T breast) |
| --- | --- | --- | --- | --- | --- | --- | --- | --- | --- | --- | --- | --- | --- | --- | --- | --- | --- | --- | --- |
| Cc1ccc(-c2nnc(-c3nn(-c4ccccc4)c4nc5ccccc5nc34)o2)cc1 | > 100 µM | 64.3 µM | 65.1 | 51.1 | 30.8 µM | > 100 µM | 38.4 µM | 26.9 µM | > 100 | 41.4 µM |  |  |  |  |  |  |  |  |  |
| Nc1nc(OCc2ccccc2)c2[nH]cnc2n1 | 400 µM and 175 µM | 319 µM and 274 µM | 400 | 191 | 128 µM and 90.7 µM | 400 µM and 293 µM | 400 µM and 574 µM | 44.2 µM and 72.4 µM and 43.5 µM | 400 | 338 µM and 240 µM | 45.8 µM and 39.9 µM | 39.5 | 25 µM and 17.3 µM | 46.7 µM and 62.9 µM | 53.2 | 13.2 µM and 13.4 µM | 35.1 µM and 48.9 µM | 18.9 µM and 18.3 µM | 49.5 µM and 57.5 µM |
| CCOC(=O)C1C(=S)NC(=O)C1C#N (stereo not drawn) | > 100 µM | > 100 µM | > 100 | > 100 | > 100 µM | > 100 µM | > 100 µM | > 100 µM | > 100 | > 100 µM |  |  |  |  |  |  |  |  |  |
| CC(=O)Nc1ccc(SC#N)c2c(NC(C)=O)cccc12 | > 100 µM | > 90.6 µM | > 100 | > 100 | > 100 µM | > 100 µM | > 100 µM | > 100 µM | > 100 | > 100 µM |  |  |  |  |  |  |  |  |  |
| CC#CCC1CCC(OCC)=CC1=O (stereo not drawn) | > 100 µM | > 100 µM | > 100 | > 100 | > 100 µM | > 100 µM | > 100 µM | > 100 µM | > 100 | > 100 µM |  |  |  |  |  |  |  |  |  |
| NC(=O)c1csc(C2OC(CO)C(O)C2O)n1 (stereo not drawn) | > 10000 µM |  | 9960 | 3160 | 4960 µM | 1690 µM | 9040 µM | 1220 µM | > 7200 | > 10000 µM | 45.9 µM | 15.6 | > 79.7 µM | > 80.6 µM and 17.2 µM | 96.1 | 65.8 µM and > 50.1 µM | 130 µM | 77.7 µM | 875 µM |
| CC1(O)C=CC(=O)C=C1 | > 100 µM | > 77 µM | 38.5 | 32.3 | 36.2 µM | 38.5 µM | 29.2 µM | 91.5 µM | 28.2 | > 100 µM |  |  |  |  |  |  |  |  |  |
| N#CC(=C1C=CC(=NO)C=C1)c1ccc(Cl)cc1 | 22.9 µM | 9.01 µM | > 100 | 31.5 | 21 µM | 37.9 µM | 48 µM | 29 µM | 39 | 49.7 µM |  |  |  |  |  |  |  |  |  |
| CS(=O)(=O)c1ccc(-c2cc(-c3ccc(S(C)(=O)=O)cc3)[n+](-c3cc(-c4ccc(S(C)(=O)=O)cc4)c([O-])c(-c4ccc(S(C)(=O)=O)cc4)c3)c(-c3ccc(S(C)(=O)=O)cc3)c2)cc1 | > 100 µM | > 100 µM | > 100 | > 100 | > 100 µM | > 100 µM | > 100 µM | > 100 µM | > 100 | > 100 µM |  |  |  |  |  |  |  |  |  |
| CN(N=O)C(=O)ON1C(=O)CCC1=O | > 100 µM | > 100 µM | > 100 | > 100 | > 100 µM | > 100 µM | > 100 µM | > 100 µM | > 100 | > 100 µM |  |  |  |  |  |  |  |  |  |
| O=C(/C=C/c1ccccc1)CCN1CCOCC1 | 32.8 µM | 12.1 µM | 35.9 | 23.9 | 31.1 µM | 27.3 µM | 38.3 µM | 16.4 µM | 22.1 | 56.8 µM |  |  |  |  |  |  |  |  | > 88.5 µM |
